The text below walks through data of the supplement of paper PMC10307832.

Holding throughout (test): relative viability (nuclei count vs DMSO), 5 days (fraction); higher = more cells survive
Compound in the experiment “17-AAG + Trametinib”: C=CCNC1=C2C[C@@H](C)C[C@H](OC)[C@H](O)[C@@H](C)/C=C(\C)[C@H](OC(N)=O)[C@@H](OC)/C=C\C=C(/C)C(=O)NC(=CC1=O)C2=O [17-AAG] + CC(=O)Nc1cccc(-n2c(=O)n(C3CC3)c(=O)c3c(Nc4ccc(I)cc4F)n(C)c(=O)c(C)c32)c1 [Trametinib] (partner 0.02 µM)
Put shortly:
(§1)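 Relative viability equals treated-well nuclei counts divided by vehicle-well nuclei counts. Counts came from 4× images of lung cancer cell lines grown in 1536-well plates for 5 days after pin-tool dosing on the day after seeding. Dosing used one drug alone or a fixed anchor-drug dose plus five library-drug doses (not always all listed) in √10 steps, and values are medians of duplicate plates.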

Compound in the experiment “17-AAG + Navitoclax”: C=CCNC1=C2C[C@@H](C)C[C@H](OC)[C@H](O)[C@@H](C)/C=C(\C)[C@H](OC(N)=O)[C@@H](OC)/C=C\C=C(/C)C(=O)NC(=CC1=O)C2=O [17-AAG] + CC1(C)CCC(c2ccc(Cl)cc2)=C(CN2CCN(c3ccc(C(=O)NS(=O)(=O)c4ccc(N[C@H](CCN5CCOCC5)CSc5ccccc5)c(S(=O)(=O)C(F)(F)F)c4)cc3)CC2)C1 [Navitoclax] (partner 0.5 µM)
Put shortly: as §1

Compound in the experiment “17-AAG + Phenformin”: C=CCNC1=C2C[C@@H](C)C[C@H](OC)[C@H](O)[C@@H](C)/C=C(\C)[C@H](OC(N)=O)[C@@H](OC)/C=C\C=C(/C)C(=O)NC(=CC1=O)C2=O [17-AAG] + N=C(N)NC(=N)NCCc1ccccc1 [Phenformin] (partner 250 µM)
The method, boiled down:
as §1

Compound in the experiment “17-AAG + Pemetrexed”: C=CCNC1=C2C[C@@H](C)C[C@H](OC)[C@H](O)[C@@H](C)/C=C(\C)[C@H](OC(N)=O)[C@@H](OC)/C=C\C=C(/C)C(=O)NC(=CC1=O)C2=O [17-AAG] + Nc1nc2[nH]cc(CCc3ccc(C(=O)N[C@@H](CCC(=O)O)C(=O)O)cc3)c2c(=O)[nH]1 [Pemetrexed] (partner 0.2 µM)
The method, boiled down:
as §1

On to HCC-78, for which the relative viability was 0.744 with 17-AAG + Trametinib (first compound 0.00128 µM); 0.593 in the experiment with 17-AAG + Trametinib (first compound 0.004048 µM); 0.71 in the experiment with 17-AAG + Trametinib (first compound 0.0128 µM); 0.663 with 17-AAG + Trametinib (first compound 0.04048 µM); 0.359 in the experiment with 17-AAG + Trametinib (first compound 0.128 µM); 0.753 with 17-AAG + Navitoclax (first compound 0.00128 µM). The relative viability with 17-AAG + Navitoclax (first compound 0.0128 µM) was determined as 0.938; with 17-AAG + Navitoclax (first compound 0.04048 µM) it was 0.942; in the experiment with 17-AAG + Navitoclax (first compound 0.128 µM), 0.286; with 17-AAG + Phenformin (first compound 0.00128 µM) it was 0.644; in the experiment with 17-AAG + Phenformin (first compound 0.004048 µM), 0.818; in the experiment with 17-AAG + Phenformin (first compound 0.0128 µM), 0.676. For the same cell line, the relative viability with 17-AAG + Phenformin (first compound 0.04048 µM) is 0.553; in the experiment with 17-AAG + Phenformin (first compound 0.128 µM), 0.351; in the experiment with 17-AAG + Pemetrexed (first compound 0.00128 µM), 0.902; with 17-AAG + Pemetrexed (first compound 0.004048 µM), 0.926; in the experiment with 17-AAG + Pemetrexed (first compound 0.0128 µM), 0.919; with 17-AAG + Pemetrexed (first compound 0.04048 µM), 0.879. The relative viability with 17-AAG + Pemetrexed (first compound 0.128 µM) was found to be 0.836.

With NCI-H3122, the relative viability in the experiment with 17-AAG + Trametinib (first compound 0.00128 µM) came to 0.23; with 17-AAG + Trametinib (first compound 0.004048 µM), 0.283; in the experiment with 17-AAG + Trametinib (first compound 0.0128 µM), 0.173; in the experiment with 17-AAG + Trametinib (first compound 0.04048 µM), 0.177; in the experiment with 17-AAG + Trametinib (first compound 0.128 µM), 0.106; with 17-AAG + Navitoclax (first compound 0.00128 µM) it was 1.02. Further, the relative viability in the experiment with 17-AAG + Navitoclax (first compound 0.004048 µM) was determined as 1.02; with 17-AAG + Navitoclax (first compound 0.0128 µM), 0.949; in the experiment with 17-AAG + Navitoclax (first compound 0.04048 µM) it was 0.194; in the experiment with 17-AAG + Navitoclax (first compound 0.128 µM), 0.159; with 17-AAG + Phenformin (first compound 0.00128 µM), 0.396; with 17-AAG + Phenformin (first compound 0.004048 µM) it was 0.329. For the same cell line, the relative viability with 17-AAG + Phenformin (first compound 0.0128 µM) is 0.129; with 17-AAG + Phenformin (first compound 0.04048 µM), 0.118; with 17-AAG + Phenformin (first compound 0.128 µM), 0.117; with 17-AAG + Pemetrexed (first compound 0.00128 µM) it was 0.198; with 17-AAG + Pemetrexed (first compound 0.004048 µM), 0.191; in the experiment with 17-AAG + Pemetrexed (first compound 0.0128 µM) it was 0.127. The relative viability in the experiment with 17-AAG + Pemetrexed (first compound 0.04048 µM) turned out to be 0.122; in the experiment with 17-AAG + Pemetrexed (first compound 0.128 µM), 0.11.

Take SW 1573: the relative viability with 17-AAG + Trametinib (first compound 0.00128 µM) was 0.589; in the experiment with 17-AAG + Trametinib (first compound 0.004048 µM), 0.381; in the experiment with 17-AAG + Trametinib (first compound 0.0128 µM), 0.161; with 17-AAG + Trametinib (first compound 0.04048 µM), 0.117; with 17-AAG + Trametinib (first compound 0.128 µM) it was 0.0829; in the experiment with 17-AAG + Navitoclax (first compound 0.00128 µM), 0.704. The relative viability amounted to 0.955 with 17-AAG + Navitoclax (first compound 0.004048 µM); 0.74 with 17-AAG + Navitoclax (first compound 0.0128 µM); 0.142 in the experiment with 17-AAG + Navitoclax (first compound 0.04048 µM); 0.0734 with 17-AAG + Navitoclax (first compound 0.128 µM); 0.34 with 17-AAG + Phenformin (first compound 0.00128 µM); 0.257 in the experiment with 17-AAG + Phenformin (first compound 0.004048 µM). Moreover, the relative viability in the experiment with 17-AAG + Phenformin (first compound 0.0128 µM) was found to be 0.123; with 17-AAG + Phenformin (first compound 0.04048 µM) it was 0.145; with 17-AAG + Phenformin (first compound 0.128 µM), 0.1; in the experiment with 17-AAG + Pemetrexed (first compound 0.00128 µM) it was 0.819; in the experiment with 17-AAG + Pemetrexed (first compound 0.004048 µM), 0.93; in the experiment with 17-AAG + Pemetrexed (first compound 0.0128 µM), 0.164. Moreover, the values for the relative viability with 17-AAG + Pemetrexed (first compound 0.04048 µM) and with 17-AAG + Pemetrexed (first compound 0.128 µM) were 0.11 and 0.0923, respectively.

Turning to EMC-BAC-2, the relative viability with 17-AAG + Trametinib (first compound 0.00128 µM) was determined as 0.946; with 17-AAG + Trametinib (first compound 0.004048 µM) it was 0.821; with 17-AAG + Trametinib (first compound 0.0128 µM), 0.765; with 17-AAG + Trametinib (first compound 0.04048 µM), 0.335; with 17-AAG + Trametinib (first compound 0.128 µM) it was 0.235; with 17-AAG + Navitoclax (first compound 0.00128 µM), 1.23. Also, the relative viability with 17-AAG + Navitoclax (first compound 0.004048 µM) was 1.07; in the experiment with 17-AAG + Navitoclax (first compound 0.0128 µM), 1.18; with 17-AAG + Navitoclax (first compound 0.04048 µM), 1.11; with 17-AAG + Navitoclax (first compound 0.128 µM), 0.443; in the experiment with 17-AAG + Phenformin (first compound 0.00128 µM), 0.576; with 17-AAG + Phenformin (first compound 0.004048 µM), 0.535. Moreover, the relative viability with 17-AAG + Phenformin (first compound 0.0128 µM) turned out to be 0.427; with 17-AAG + Phenformin (first compound 0.04048 µM), 0.261; in the experiment with 17-AAG + Phenformin (first compound 0.128 µM), 0.189; in the experiment with 17-AAG + Pemetrexed (first compound 0.00128 µM) it was 0.504; in the experiment with 17-AAG + Pemetrexed (first compound 0.004048 µM), 0.536; with 17-AAG + Pemetrexed (first compound 0.0128 µM), 0.548. Besides, the relative viability in the experiment with 17-AAG + Pemetrexed (first compound 0.04048 µM) is 0.448; with 17-AAG + Pemetrexed (first compound 0.128 µM), 0.383.
